{"source": "PubChem BioAssay (NCI)", "experiment_in_all_cases": "growth of human tumour cells (NCI), 48 h", "key": {"[1]": {"test_system": "786-0 renal"}, "[2]": {"test_system": "A498 renal"}, "[3]": {"test_system": "A549 NSCLC"}, "[4]": {"test_system": "ACHN renal"}, "[5]": {"test_system": "BT-549 breast"}, "[6]": {"test_system": "CAKI-1 renal"}, "[7]": {"test_system": "CCRF-CEM leukemia"}, "[8]": {"test_system": "COLO 205 colon"}, "[9]": {"test_system": "DU-145 prostate"}, "[10]": {"test_system": "EKVX NSCLC"}, "[11]": {"test_system": "HCC-2998 colon"}, "[12]": {"test_system": "HCT-116 colon"}, "[13]": {"test_system": "HCT-15 colon"}, "[14]": {"test_system": "HOP-62 NSCLC"}, "[15]": {"test_system": "HOP-92 NSCLC"}, "[16]": {"test_system": "HS 578T breast"}, "[17]": {"test_system": "HT29 colon"}, "[18]": {"test_system": "IGROV1 ovarian"}, "[19]": {"test_system": "KM12 colon"}, "[20]": {"test_system": "LOX IMVI melanoma"}, "[21]": {"test_system": "M14 melanoma"}, "[22]": {"test_system": "MALME-3M melanoma"}, "[23]": {"test_system": "MCF7 breast"}, "[24]": {"test_system": "MDA-MB-231 breast"}, "[25]": {"test_system": "MDA-MB-435"}, "[26]": {"test_system": "MOLT-4 leukemia"}, "[27]": {"test_system": "NCI-H23 lung"}, "[28]": {"test_system": "NCI-H460 lung"}, "[29]": {"test_system": "NCI-H522 lung"}, "[30]": {"test_system": "NCI/ADR-RES ovarian"}, "[31]": {"test_system": "OVCAR-4 ovarian"}, "[32]": {"test_system": "OVCAR-5 ovarian"}, "[33]": {"test_system": "OVCAR-8 ovarian"}, "[34]": {"test_system": "PC-3 prostate"}, "[35]": {"test_system": "RPMI-8226 leukemia"}, "[36]": {"test_system": "SF-539 CNS"}, "[37]": {"test_system": "SK-MEL-28 melanoma"}, "[38]": {"test_system": "SK-MEL-5 melanoma"}, "[39]": {"test_system": "SK-OV-3 ovarian"}, "[40]": {"test_system": "SN12C renal"}, "[41]": {"test_system": "SNB-19 CNS"}, "[42]": {"test_system": "SNB-75 CNS"}, "[43]": {"test_system": "SR leukemia"}, "[44]": {"test_system": "SW-620 colon"}, "[45]": {"test_system": "TK-10 renal"}, "[46]": {"test_system": "U251 CNS"}, "[47]": {"test_system": "UACC-257 melanoma"}, "[48]": {"test_system": "UACC-62 melanoma"}, "[49]": {"test_system": "UO-31 renal"}, "[50]": {"test_system": "HL-60(TB) leukemia"}, "[51]": {"test_system": "NCI-H226 lung"}, "[52]": {"test_system": "RXF 393 renal"}, "[53]": {"test_system": "SF-268 CNS"}}, "note": "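Following 48 hours of exposure in 96-well plates, responses at five concentrations were used to interpolate endpoints linearly. The concentration for 50% growth inhibition is given as GI50. TGI is the concentration that stops growth completely.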", "data": [{"smiles": "Nc1ccc2[nH]c(-c3cccc(C(F)(F)F)c3)cc(=O)c2c1", "values": [{"measurement": "TGI", "setting": "[1]", "result": "> 100", "unit": "µM"}, {"measurement": "TGI", "setting": "[2]", "result": 82.9, "unit": "µM"}, {"measurement": "TGI", "setting": "[3]", "result": "> 100", "unit": "µM"}, {"measurement": "TGI", "setting": "[4]", "result": "> 100", "unit": "µM"}, {"measurement": "TGI", "setting": "[5]", "result": "> 100", "unit": "µM"}, {"measurement": "TGI", "setting": "[6]", "result": "> 100", "unit": "µM"}, {"measurement": "TGI", "setting": "[7]", "result": 59.9, "unit": "µM"}, {"measurement": "TGI", "setting": "[8]", "result": "> 100", "unit": "µM"}, {"measurement": "GI50", "setting": "[9]", "result": 43.6, "unit": "µM"}, {"measurement": "TGI", "setting": "[9]", "result": "> 100", "unit": "µM"}, {"measurement": "TGI", "setting": "[10]", "result": "> 100", "unit": "µM"}, {"measurement": "TGI", "setting": "[11]", "result": "> 100", "unit": "µM"}, {"measurement": "GI50", "setting": "[12]", "result": 52, "unit": "µM"}, {"measurement": "TGI", "setting": "[12]", "result": "> 100", "unit": "µM"}, {"measurement": "TGI", "setting": "[13]", "result": "> 100", "unit": "µM"}, {"measurement": "TGI", "setting": "[14]", "result": "> 100", "unit": "µM"}, {"measurement": "TGI", "setting": "[15]", "result": "> 100", "unit": "µM"}, {"measurement": "TGI", "setting": "[16]", "result": 65.6, "unit": "µM"}, {"measurement": "TGI", "setting": "[17]", "result": "> 100", "unit": "µM"}, {"measurement": "TGI", "setting": "[18]", "result": "> 100", "unit": "µM"}, {"measurement": "TGI", "setting": "[19]", "result": "> 100", "unit": "µM"}, {"measurement": "TGI", "setting": "[20]", "result": "> 100", "unit": "µM"}, {"measurement": "TGI", "setting": "[21]", "result": "> 100", "unit": "µM"}, {"measurement": "TGI", "setting": "[22]", "result": "> 100", "unit": "µM"}, {"measurement": "TGI", "setting": "[23]", "result": "> 100", "unit": "µM"}, {"measurement": "TGI", "setting": "[24]", "result": "> 100", "unit": "µM"}, {"measurement": "TGI", "setting": "[25]", "result": 88.6, "unit": "µM"}, {"measurement": "TGI", "setting": "[26]", "result": "> 100", "unit": "µM"}, {"measurement": "TGI", "setting": "[27]", "result": "> 100", "unit": "µM"}, {"measurement": "TGI", "setting": "[28]", "result": "> 100", "unit": "µM"}, {"measurement": "TGI", "setting": "[29]", "result": "> 100", "unit": "µM"}, {"measurement": "TGI", "setting": "[30]", "result": "> 100", "unit": "µM"}, {"measurement": "GI50", "setting": "[31]", "result": 62.9, "unit": "µM"}, {"measurement": "TGI", "setting": "[31]", "result": "> 100", "unit": "µM"}, {"measurement": "TGI", "setting": "[32]", "result": "> 100", "unit": "µM"}, {"measurement": "TGI", "setting": "[33]", "result": "> 100", "unit": "µM"}, {"measurement": "TGI", "setting": "[34]", "result": 97.7, "unit": "µM"}, {"measurement": "TGI", "setting": "[35]", "result": "> 100", "unit": "µM"}, {"measurement": "TGI", "setting": "[36]", "result": 53, "unit": "µM"}, {"measurement": "TGI", "setting": "[37]", "result": "> 100", "unit": "µM"}, {"measurement": "TGI", "setting": "[38]", "result": "> 100", "unit": "µM"}, {"measurement": "TGI", "setting": "[39]", "result": "> 100", "unit": "µM"}, {"measurement": "TGI", "setting": "[40]", "result": "> 100", "unit": "µM"}, {"measurement": "TGI", "setting": "[41]", "result": "> 100", "unit": "µM"}, {"measurement": "TGI", "setting": "[42]", "result": 96.9, "unit": "µM"}, {"measurement": "TGI", "setting": "[43]", "result": 97.8, "unit": "µM"}, {"measurement": "TGI", "setting": "[44]", "result": "> 100", "unit": "µM"}, {"measurement": "TGI", "setting": "[45]", "result": "> 100", "unit": "µM"}, {"measurement": "TGI", "setting": "[46]", "result": "> 100", "unit": "µM"}, {"measurement": "TGI", "setting": "[47]", "result": "> 100", "unit": "µM"}, {"measurement": "TGI", "setting": "[48]", "result": "> 100", "unit": "µM"}, {"measurement": "TGI", "setting": "[49]", "result": "> 100", "unit": "µM"}]}, {"smiles": "N=C(N)c1ccc(-c2ccc(/C=C/c3ccccc3)s2)cc1", "values": [{"measurement": "GI50", "setting": "[2]", "result": 11.9, "unit": "µM"}, {"measurement": "TGI", "setting": "[2]", "result": 34.1, "unit": "µM"}, {"measurement": "GI50", "setting": "[4]", "result": 1.67, "unit": "µM"}, {"measurement": "TGI", "setting": "[4]", "result": 3.03, "unit": "µM"}, {"measurement": "GI50", "setting": "[50]", "result": 2.17, "unit": "µM"}, {"measurement": "TGI", "setting": "[50]", "result": 4.67, "unit": "µM"}, {"measurement": "GI50", "setting": "[16]", "result": 2.58, "unit": "µM"}, {"measurement": "TGI", "setting": "[16]", "result": 7.32, "unit": "µM"}, {"measurement": "GI50", "setting": "[51]", "result": 6.82, "unit": "µM"}, {"measurement": "TGI", "setting": "[51]", "result": 46, "unit": "µM"}, {"measurement": "GI50", "setting": "[32]", "result": 1.47, "unit": "µM"}, {"measurement": "TGI", "setting": "[32]", "result": 2.87, "unit": "µM"}, {"measurement": "GI50", "setting": "[52]", "result": 1.65, "unit": "µM"}, {"measurement": "TGI", "setting": "[52]", "result": 3.13, "unit": "µM"}, {"measurement": "GI50", "setting": "[53]", "result": 4.28, "unit": "µM"}, {"measurement": "TGI", "setting": "[53]", "result": 39.7, "unit": "µM"}, {"measurement": "GI50", "setting": "[37]", "result": 1.65, "unit": "µM"}, {"measurement": "TGI", "setting": "[37]", "result": 3.07, "unit": "µM"}, {"measurement": "GI50", "setting": "[38]", "result": 2.6, "unit": "µM"}, {"measurement": "TGI", "setting": "[38]", "result": 7.12, "unit": "µM"}, {"measurement": "GI50", "setting": "[39]", "result": 2.07, "unit": "µM"}, {"measurement": "TGI", "setting": "[39]", "result": 4.9, "unit": "µM"}]}]}
